The source of these data is patent US10273228B2, “Hepatitis B viral assembly effectors” (Indiana University Research and Technology Corporation, priority 2015, dated 2019).

SMILES strings stand for the structures.

The test system of series [1] is HBV viral load, AD38 cells. Description: Activity of test compounds on viral production from AD38 cells (viral load by quantitative PCR of the core sequence in supernatant). Particulars: Hepatitis B virus, 144 h, 10 μM compound, 6 days at 37° C., vs DMSO control wells; Table 9; read-out: AD38 Viral Load (CpAM/DMSO %) at 10 μM. In kind it is cell-based, Hepatitis B virus. The gist of the method: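 Cells seeded at 50,000/well on collagen-coated plates and exposed for 6 days at 37 °C to compound at 1, 3 or 10 μM final (1.0% DMSO). Supernatant viral DNA measured by TaqMan qPCR of the core sequence against known standards, compared with DMSO control wells.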

For the next series, the system named is AD38 cells. Description: AD38 viability normalized to DMSO control. Particulars: 10 μM compound, vs DMSO control; Table 9. In kind it is cell-based. How it is done: AD38 cells were then re-suspended with 10 mL of treatment medium and counted. Wells of a collagen coated 96-well NUNC microtiter plate were seeded at 50,000/well in 180 μL of treatment medium, and 20 μL of either 10% DMSO (Control) or a 10× solution of test compound in 10% DMSO in treatment media was added for a final compound concentration 1, 3, or 10 μM (1.0% final [DMSO]) and plates were incubated for 6 days at 37° C.

Consider `COC(=O)c1ccc(S(=O)(=O)N2CCN(c3nc(C)cc(Nc4ccc(F)cc4)n3)CC2)cc1` [Compound 1382, methyl 4-((4-(4-((4-fluorophenyl)amino)-6-methylpyrimidin-2-yl)piperazin-1-yl)sulfonyl) benzoate], for which the activity at 10 µM in series [1] was determined as 34%. Besides, the “AD38 Viability Normalized Result (CPAM/DMSO %) at 10 μM” value in the series with AD38 cells is listed as 107%.
With `Cc1cc(Nc2ccc(F)cc2)nc(N2CCN(S(=O)(=O)c3ccc(OCCN4CCOCC4)cc3)CC2)n1` [Compound 1383, N-(4-fluorophenyl)-6-methyl-2-(4-((4-(2-morpholinoethoxy)phenyl)sulfonyl)piperazin-1-yl) pyrimidin-4-amine], the activity at 10 µM in series [1] amounted to 14%. Besides, the “AD38 Viability Normalized Result (CPAM/DMSO %) at 10 μM” value with AD38 cells amounted to 94%.
In the same order, the values of `Cc1cc(Nc2ccc(F)cc2)nc(N2CCN(S(=O)(=O)c3ccc(OCC(=O)O)cc3)CC2)n1` [Compound 1384, 2-(4-((4-(4-((4-fluorophenyl)amino)-6-methylpyrimidin-2-yl)piperazin-1-yl)sulfonyl)phenoxy) acetic acid] are 122% and 91%.
On the same counts, the results for `CCOC(=O)COc1ccc(S(=O)(=O)N2CCN(c3nc(C)cc(Nc4ccc(F)cc4)n3)CC2)cc1` [Compound 1385, ethyl 2-(4-((4-(4-((4-fluorophenyl)amino)-6-methylpyrimidin-2-yl)piperazin-1-yl)sulfonyl)phenoxy) acetate] are 105% and 94%.
Consider `COC(=O)c1ccc(S(=O)(=O)N2CCN(c3nc(Nc4ccc(F)cc4)cc(C(F)(F)F)n3)CC2)cc1` [Compound 1386], for which the activity at 10 µM in series [1] was determined as 23%. Moreover, the “AD38 Viability Normalized Result (CPAM/DMSO %) at 10 μM” value in the series on AD38 cells came out at 118%.
On the same counts, the results for `COC(=O)CCCOc1ccc(S(=O)(=O)N2CCN(c3nc(C)cc(Nc4ccc(F)cc4)n3)CC2)cc1` [Compound 1387, methyl 4-(4-((4-(4-((4-fluorophenyl)amino)-6-methylpyrimidin-2-yl)piperazin-1-yl)sulfonyl)phenoxy) butanoate] are 19% and 107%.
In the same order, the values of `O=C(O)c1ccc(S(=O)(=O)N2CCN(c3nc(Nc4ccc(F)cc4)cc(C(F)(F)F)n3)CC2)cc1` [Compound 1388, 4-((4-(4-((4-fluorophenyl)amino)-6-(trifluoromethyl)pyrimidin-2-yl)piperazin-1-yl)sulfonyl) benzoic acid] are 15% and 106%.
`CN(C)CCOc1ccc(S(=O)(=O)N2CCN(c3nc(Nc4ccc(F)cc4)cc(C(F)(F)F)n3)CC2)cc1` [Compound 1389, 2-(4-((4-(2-(dimethylamino)ethoxy)phenyl)sulfonyl)piperazin-1-yl)-N-(4-fluorophenyl)-6-(trifluoromethyl) pyrimidin-4-amine]: the activity at 10 µM in series [1] came to 2%. In addition, the “AD38 Viability Normalized Result (CPAM/DMSO %) at 10 μM” value in the series with AD38 cells was 0%.
Consider `O=S(=O)(c1ccc(OCCN2CCOCC2)cc1)N1CCN(c2nc(Nc3ccc(F)cc3)cc(C(F)(F)F)n2)CC1` [Compound 1390, N-(4-fluorophenyl)-2-(4-((4-(2-morpholinoethoxy)phenyl)sulfonyl)piperazin-1-yl)-6-(trifluoromethyl) pyrimidin-4-amine], for which, in series [1], the activity at 10 µM came to 1%. Also, in the series with AD38 cells, the “AD38 Viability Normalized Result (CPAM/DMSO %) at 10 μM” value is recorded as 104%.
On the same counts, the results for `O=S(=O)(c1ccc(C(F)(F)F)cc1)N1CCN(c2nc(Nc3ccc(F)cc3)cc(C(F)(F)F)n2)CC1` [Compound 1391] are 16% and 88%.
Consider `Cc1cc(Nc2ccc(F)cc2)nc(N2CCN(S(=O)(=O)c3ccc(CC(=O)O)cc3)CC2)n1` [Compound 1392, 2-(4-((4-(4-((4-fluorophenyl)amino)-6-methylpyrimidin-2-yl)piperazin-1-yl)sulfonyl)phenyl) acetic acid], for which the activity at 10 µM in series [1] is 69%. In addition, the “AD38 Viability Normalized Result (CPAM/DMSO %) at 10 μM” value in the series with AD38 cells came out at 99%.
